The values that follow are results of earlier work, collected in US11931686B1, “Carbon capture process utilizing inert gas medium to assist thermal desorption” (CARBON CAPTURE INC., priority 2022, dated 2024).

Tested on in one series: not given
Particulars: Table 1.
In the case of `CCOC(=O)c1ccccc1` [Ethyl Benzoate, ethyl benzoate], the “Solubility in Water” value is on record as 0.07 g/100 g. As to `Cc1ccccc1C` [o-Xylene, o-xylene], the “Solubility in Water” value is 0.02 g/100 g. `C[Si](C)(C)O[Si](C)(C)O[Si](C)(C)O[Si](C)(C)C` [MD2M, decamethyltetrasiloxane]: the “Solubility in Water” value is recorded as “insoluble”.

The subject of a further series is Rat. The note with it: Rat; Table 1, inert chemical fluids.
For the compound `Cc1ccccc1C` [o-Xylene, o-xylene], the “LD50 (Rat)” value is listed as 3,600 mg/kg.

The series is the same for the next values; noted with them: Rat; Table 3, alcohols.
As to `CC(C)CCO` [i-Amyl Alcohol], the “LD50 (Rat)” value is given as 1,300 mg/kg.

Still in this series, the particulars now being: Rat; Table 4, hydrocarbons.
`CCCCCCCC` [Octane]: the “LD50 (Rat)” value is >5,000 mg/kg. Turning to `c1ccc2c(c1)CCCC2` [Tetralin], the “LD50 (Rat)” value is 2,860 mg/kg.

The series is the same for the next values; noted with them: rat, in vivo.
For the compound `CCOC(=O)c1ccccc1` [Ethyl Benzoate, ethyl benzoate], the “LD50 (Rat)” value is listed as 2,100 mg/kg. For `CCC(C)O` (centres unmarked) [2-Butanol], the “LD50 (Rat)” value is listed as 2,193 mg/kg. In the case of `CCCCCCCCCCC` [Undecane, undecane], the “LD50 (Rat)” value was 2,000 mg/kg. For `Clc1ccccc1` [Chlorobenzene], the “LD50 (Rat)” value is given as >2,000 mg/kg. For the compound `CC(C)CO` [i-Butanol], the “LD50 (Rat)” value was 2,460 mg/kg.

Regarding `Cc1cccc(C)c1` [m-Xylene, m-xylene], the “LD50 (Rat)” value is 5,000 mg/kg. In the case of `CCC(CC)CO` [2-Ethylbutanol], the “LD50 (Rat)” value is listed as 1,850 mg/kg. For the compound `CCO` [Ethanol], the “LD50 (Rat)” value is 7,340 mg/kg. In the case of `CCCCO` [1-Butanol], the “LD50 (Rat)” value is 790 mg/kg.

On to `C[Si](C)(C)O[Si](C)(C)O[Si](C)(C)O[Si](C)(C)C` [MD2M, decamethyltetrasiloxane], for which the “LD50 (Rat)” value is >2,000 mg/kg. For the compound `CCCCC(CC)CO` (centres unmarked) [2-Ethylhexanol], the “LD50 (Rat)” value is listed as 3,730 mg/kg. Regarding `Cc1ccc(C(C)C)cc1` [p-Cymene], the “LD50 (Rat)” value is reported as 4,750 mg/kg.

As to `CC(C)O` [2-Propanol], the “LD50 (Rat)” value is 3,600 mg/kg. Regarding `CCCCCCC` [Heptane], the “LD50 (Rat)” value is >5,000 mg/kg. For the compound `CO` [Methanol], the “LD50 (Rat)” value was 5,628 mg/kg.

For the compound `CCCO` [1-Propanol], the “LD50 (Rat)” value is 1,870 mg/kg.
